According to patent US8044079B2, “Substituted oxindole derivatives, medicaments containing said derivatives and use thereof” (Abbott GmbH & Co. KG, priority 2005, dated 2011):

biological target: T1, human vasopressin V1b receptor (Homo sapiens, UniProt P47901); experiment: Vasopressin V1b receptor binding test; conditions: membranes of CHO-K1 cells with human V1b receptor, displacement of 1.5 nM 3H-AVP; for compounds with more than one stereogenic center the diastereomer with greater affinity
T1 construct: expressed in transfected cells; host or cells: CHO-K1 (cell line hV1b_3H2_CHO), membrane preparation
T1 sequence (P47901 1-424): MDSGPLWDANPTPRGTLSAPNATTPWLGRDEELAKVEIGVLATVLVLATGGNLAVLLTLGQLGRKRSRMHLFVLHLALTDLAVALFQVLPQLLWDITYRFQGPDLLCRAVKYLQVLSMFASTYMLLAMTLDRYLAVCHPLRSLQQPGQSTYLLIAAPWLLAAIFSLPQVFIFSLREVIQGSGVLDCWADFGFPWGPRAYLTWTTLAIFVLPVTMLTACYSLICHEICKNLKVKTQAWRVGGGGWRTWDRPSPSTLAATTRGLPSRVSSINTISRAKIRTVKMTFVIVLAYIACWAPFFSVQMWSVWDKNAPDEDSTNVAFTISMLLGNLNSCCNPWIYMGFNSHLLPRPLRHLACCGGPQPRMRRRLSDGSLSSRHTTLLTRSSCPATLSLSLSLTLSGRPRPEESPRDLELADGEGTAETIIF
In short: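 Affinity constants (Ki) came from nonlinear regression of triplicate scintillation counts after filtration separated bound from free radioligand. Compounds competed at human V1b membranes for 60 min, room temperature, in pH 7.4 tris/MgCl2/BSA buffer with 2% DMSO; 1 μM AVP defined nonspecific binding.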

`COc1ccc(S(=O)(=O)N2C(=O)C(c3ccc(CNC(C)C)cc3OC)(N3CCC[C@H]3c3ncco3)c3cc(C#N)ccc32)cc1` (stereo partly drawn) [Example 100, 5-Cyano-3-[4-(isopropylaminomethyl)-2-methoxyphenyl]-1-(4-methoxybenzenesulfonyl)-3-((S)-2-oxazol-2-yl-pyrrolidin-1-yl)-1,3-dihydroindol-2-one] and `COc1ccc(S(=O)(=O)N2C(=O)C(c3ccc(CN4CCCC4)cc3OC)(N3CCC[C@H]3c3ncco3)c3cc(C#N)ccc32)cc1` (stereo partly drawn) [Example 101, 5-Cyano-1-(4-methoxybenzenesulfonyl)-3-(2-methoxy-4-(pyrrolidin-1-ylmethyl)phenyl)-3-((S)-2-oxazol-2-yl-pyrrolidin-1-yl)-1,3-dihydroindol-2-one] fall in the same range of Ki: 10 to 100 nM for the first, 10 to 100 nM for the second.

`COc1ccc(S(=O)(=O)N2C(=O)C(c3cc(CN(C)C)ccc3OC)(N3C[C@H](O)C[C@H]3c3ncco3)c3cc(Cl)ccc32)cc1` (stereo partly drawn) [Example 102, 5-Chloro-3-(5-dimethylaminomethyl-2-methoxyphenyl)-3-((2S,4R)-4-hydroxy-2-oxazol-2-yl-pyrrolidin-1-yl)-1-(4-methoxybenzenesulfonyl)-1,3-dihydroindol-2-one] and `CNCc1ccc(OC)c(C2(N3C[C@H](O)C[C@H]3c3ncco3)C(=O)N(S(=O)(=O)c3ccc(OC)cc3)c3ccc(Cl)cc32)c1` (stereo partly drawn) [Example 105, 5-Chloro-3-((2S,4R)-4-hydroxy-2-oxazol-2-yl-pyrrolidin-1-yl)-1-(4-methoxybenzenesulfonyl)-3-(2-methoxy-5-(methylaminomethyl)phenyl)-1,3-dihydroindol-2-one] cannot be ordered by Ki: < 10 nM for the first, < 10 nM for the second.

`COc1ccc(S(=O)(=O)N2C(=O)C(c3cc(CN4CCN(C)CC4)ccc3OC)(N3C[C@H](O)C[C@H]3c3ncco3)c3cc(Cl)ccc32)cc1` (stereo partly drawn) [Example 103, 5-Chloro-3-((2S,4R)-4-hydroxy-2-oxazol-2-yl-pyrrolidin-1-yl)-1-(4-methoxybenzenesulfonyl)-3-[2-methoxy-5-(4-methylpiperazin-1-ylmethyl)phenyl]-1,3-dihydroindol-2-one] and `COc1ccc(S(=O)(=O)N2C(=O)C(c3cc(CN4CCCC4)ccc3OC)(N3C[C@H](O)C[C@H]3c3ncco3)c3cc(Cl)ccc32)cc1` (stereo partly drawn) [Example 114, 5-Chloro-3-((2S,4R)-4-hydroxy-2-oxazol-2-yl-pyrrolidin-1-yl)-1-(4-methoxybenzenesulfonyl)-3-(2-methoxy-5-(pyrrolidin-1-ylmethyl)phenyl)-1,3-dihydroindol-2-one] cannot be ordered by Ki: < 10 nM for the first, < 10 nM for the second.

`COc1ccc(S(=O)(=O)N2C(=O)C(c3cc(CN4CCN(C(C)C)CC4)ccc3OC)(N3CCC[C@H]3c3ncco3)c3cc(Cl)c(Cl)cc32)cc1` (stereo partly drawn) [Example 104, 5,6-Dichloro-3-[5-(4-isopropylpiperazin-1-ylmethyl)-2-methoxyphenyl]-1-(4-methoxybenzenesulfonyl)-3-((S)-2-oxazol-2-yl-pyrrolidin-1-yl)-1,3-dihydroindol-2-one] and `COc1ccc(S(=O)(=O)N2C(=O)C(c3cc(CN4CCN(CCO)CC4)ccc3OC)(N3CCC[C@H]3c3ncco3)c3cc(Cl)c(Cl)cc32)cc1` (stereo partly drawn) [Example 107, 5,6-Dichloro-3-{5-[4-(2-hydroxyethyl)piperazin-1-ylmethyl]-2-methoxyphenyl}-1-(4-methoxybenzenesulfonyl)-3-((S)-2-oxazol-2-yl-pyrrolidin-1-yl)-1,3-dihydroindol-2-one] fall in the same range of Ki: 10 to 100 nM for the first, 10 to 100 nM for the second.

First: COc1ccc(S(=O)(=O)N2C(=O)C(c3cc(CNC(C)(C)C)ccc3OC)(N3CCC[C@H]3c3ncco3)c3cc(Cl)c(Cl)cc32)cc1 (stereo partly drawn) [Example 106, 5,6-Dichloro-3-[5-(tert-butylaminomethyl)-2-methoxyphenyl]-1-(4-methoxybenzenesulfonyl)-3-((S)-2-oxazol-2-yl-pyrrolidin-1-yl)-1,3-dihydroindol-2-one]
Second: CCCNCc1ccc(OC)c(C2(N3CCC[C@H]3c3ncco3)C(=O)N(S(=O)(=O)c3ccc(OC)cc3)c3ccc(Cl)cc32)c1 (stereo partly drawn) [Example 116, 5-Chloro-1-(4-methoxybenzenesulfonyl)-3-(2-methoxy-5-(propylaminomethyl)phenyl)-3-((S)-2-oxazol-2-yl-pyrrolidin-1-yl)-1,3-dihydroindol-2-one]
The Ki of the first is higher: 10 to 100 nM for the first, < 10 nM for the second.

`COc1ccc(S(=O)(=O)N2C(=O)C(NCc3ncco3)(c3cc(CN(C)C)ccc3OC)c3cc(Cl)ccc32)cc1` (centres unmarked) [Example 108, 5-Chloro-3-(5-dimethylaminomethyl-2-methoxyphenyl)-1-(4-methoxybenzenesulfonyl)-3-[(oxazol-2-ylmethyl)amino]-1,3-dihydroindol-2-one] and `COc1ccc(S(=O)(=O)N2C(=O)C(NCc3ncco3)(c3cc(CNCCO)ccc3OC)c3cc(Cl)ccc32)cc1` (centres unmarked) [Example 111, 5-Chloro-3-{5-[(2-hydroxyethylamino)methyl]-2-methoxyphenyl}-1-(4-methoxybenzenesulfonyl)-3-[(oxazol-2-ylmethyl)amino]-1,3-dihydroindol-2-one] fall in the same range of Ki: 10 to 100 nM for the first, 10 to 100 nM for the second.

`COc1ccc(S(=O)(=O)N2C(=O)C(NCc3ncco3)(c3cc(CN4CCCC4)ccc3OC)c3cc(Cl)ccc32)cc1` (centres unmarked) [Example 109, 5-Chloro-1-(4-methoxybenzenesulfonyl)-3-(2-methoxy-5-pyrrolidin-1-ylmethylphenyl)-3-[(oxazol-2-ylmethyl)amino]-1,3-dihydroindol-2-one] and `COc1ccc(S(=O)(=O)N2C(=O)C(NCc3ncco3)(c3cc(CN4CCN(C)CC4)ccc3OC)c3cc(Cl)ccc32)cc1` (centres unmarked) [Example 110, 5-Chloro-1-(4-methoxybenzenesulfonyl)-3-[2-methoxy-5-(4-methylpiperazin-1-ylmethyl)phenyl]-3-[(oxazol-2-ylmethyl)amino]-1,3-dihydroindol-2-one] fall in the same range of Ki: 10 to 100 nM for the first, 10 to 100 nM for the second.

`COc1ccc(S(=O)(=O)N2C(=O)C(c3cc(CN4CCNCC4)ccc3OC)(N3C[C@H](O)C[C@H]3c3ncco3)c3cc(Cl)ccc32)cc1` (stereo partly drawn) [Example 113, 5-Chloro-3-((2S,4R)-4-hydroxy-2-oxazol-2-yl-pyrrolidin-1-yl)-1-(4-methoxybenzenesulfonyl)-3-(2-methoxy-5-(piperazin-1-ylmethyl)phenyl)-1,3-dihydroindol-2-one] and `CCCNCc1ccc(OC)c(C2(N3C[C@H](O)C[C@H]3c3ncco3)C(=O)N(S(=O)(=O)c3ccc(OC)cc3)c3ccc(Cl)cc32)c1` (stereo partly drawn) [Example 115, 5-Chloro-3-((2S,4R)-4-hydroxy-2-oxazol-2-yl-pyrrolidin-1-yl)-1-(4-methoxybenzenesulfonyl)-3-(2-methoxy-5-(propylaminomethyl)phenyl)-1,3-dihydroindol-2-one] cannot be ordered by Ki: < 10 nM for the first, < 10 nM for the second.

First: COc1ccc(S(=O)(=O)N2C(=O)C(c3cc(CN(C)C)ccc3OC)(N3CCCC3c3nccs3)c3cc(Cl)ccc32)cc1 (centres unmarked) [Example 117, 5-Chloro-3-(5-dimethylaminomethyl-2-methoxyphenyl)-1-(4-methoxybenzenesulfonyl)-3-(2-thiazol-2-yl-pyrrolidin-1-yl)-1,3-dihydroindol-2-one]
Second: COc1ccc(S(=O)(=O)N2C(=O)C(c3cc(CN(C)C)ccc3OC)(N3CCCC3c3ccccn3)c3cc(Cl)ccc32)cc1 (centres unmarked) [Example 122, 5-Chloro-3-(5-dimethylaminomethyl-2-methoxyphenyl)-1-(4-methoxybenzenesulfonyl)-3-(2-pyridin-2-yl-pyrrolidin-1-yl)-1,3-dihydroindol-2-one]
The Ki of the first is lower: 10 to 100 nM for the first, 100 to 1000 nM for the second.

`COc1ccc(S(=O)(=O)N2C(=O)C(c3cc(CN4CCCC4)ccc3OC)(N3CCCC3c3nccs3)c3cc(Cl)ccc32)cc1` (centres unmarked) [Example 118, 5-Chloro-1-(4-methoxybenzenesulfonyl)-3-(2-methoxy-5-(pyrrolidin-1-ylmethyl)phenyl)-3-(2-thiazol-2-yl-pyrrolidin-1-yl)-1,3-dihydroindol-2-one] and `COc1ccc(S(=O)(=O)N2C(=O)C(c3cc(CN4CCNCC4)ccc3OC)(N3CCCC3c3nccs3)c3cc(Cl)ccc32)cc1` (centres unmarked) [Example 121, 5-Chloro-1-(4-methoxybenzenesulfonyl)-3-(2-methoxy-5-(piperazin-1-ylmethyl)phenyl)-3-(2-thiazol-2-yl-pyrrolidin-1-yl)-1,3-dihydroindol-2-one] fall in the same range of Ki: 10 to 100 nM for the first, 10 to 100 nM for the second.

First: COc1ccc(S(=O)(=O)N2C(=O)C(c3cc(CN4CCN(C)CC4)ccc3OC)(N3CCCC3c3nccs3)c3cc(Cl)ccc32)cc1 (centres unmarked) [Example 119, 5-Chloro-1-(4-methoxybenzenesulfonyl)-3-[2-methoxy-5-(4-methylpiperazin-1-ylmethyl)phenyl]-3-(2-thiazol-2-yl-pyrrolidin-1-yl)-1,3-dihydroindol-2-one]
Second: CNCc1ccc(OC)c(C2(N3CCCC3c3ccccn3)C(=O)N(S(=O)(=O)c3ccc(OC)cc3)c3ccc(Cl)cc32)c1 (centres unmarked) [Example 120, 5-Chloro-1-(4-methoxybenzenesulfonyl)-3-(2-methoxy-5-methylaminomethylphenyl)-3-(2-pyridin-2-yl-pyrrolidin-1-yl)-1,3-dihydroindol-2-one]
The Ki of the first is lower: 10 to 100 nM for the first, 100 to 1000 nM for the second.

`CCCNCc1ccc(OC)c(C2(N3CCCC3c3ccccn3)C(=O)N(S(=O)(=O)c3ccc(OC)cc3)c3ccc(Cl)cc32)c1` (centres unmarked) [Example 123, 5-Chloro-1-(4-methoxybenzenesulfonyl)-3-(2-methoxy-5-propylaminomethylphenyl)-3-(2-pyridin-2-yl-pyrrolidin-1-yl)-1,3-dihydroindol-2-one] gave a Ki of 100 to 1000 nM.
